Data published in patent publication US20060258716A1, “Methods and compositions for the treatment of helicobacter pylori-associated diseases using endoperoxide bridge-containing compounds” (priority 2003, published 2006).
Values after ≈ are worked out from the molar mass of the structure shown.

Experiments:
[1] = tested on: H. pylori; assay: Growth inhibition of H. pylori (MIC), growth monitored by spectrophotometer; type: cell-based; conditions: for minimal inhibitory concentration (MIC): Example 4, FIG. 4
Method: (§1) To test the effect of artemisinin on the growth of H. pylori, freshly prepared bacteria were exposed to various concentrations of artemisinin. Bacteria were grown for fixed incubation times and their growth levels were monitored using a spectrophotometer. The growth of treated bacteria was compared to that of non-treated bacteria.
as §1, with “effectivity” for “effect”, “artemisinin derivatives” for “artemisinin”, “artemisinin derivatives.” for “artemisinin.”

[2] = tested on: H. pylori; assay: Minimal bactericidal concentration: treated H. pylori plated on solid medium, colonies counted; type: cell-based; conditions: no colony-forming units on solid medium
Method: To further determine the antibacterial effect of artemisinin, H. pylori maintained in the presence of various concentrations of artemisinin were plated on solid medium and the number of single colonies was monitored.

[3] = tested on: E. coli; assay: MBC against E. coli; type: cell-based
Method: (§2) To determine whether the effect of artemisinin is specific to H. pylori, the ability of artemisinin to inhibit the growth of E. coli and P. acnes was tested. In contrary to H. pylori, which is a microaerophilic bacterium, E. coli is an aerobic intestinal bacterium, and P. acnes is an anaerobic dermal bacterium. These bacteria were exposed to various concentrations of artemisinin, and MIC and MBC values were determined.

[4] = tested on: P. acnes; assay: MBC against P. acnes; type: cell-based
Method: as §2

[5] = tested on: Lactobacillus acidophilus; assay: MIC / growth of Lactobacillus acidophilus; type: cell-based
Method: (§3) The effect of artemisinin on the growth and viability of Lactobacillus acidophilus (L. acidophilus) that is part of the normal flora of the intestine was examined. L. acidophilus bacteria were grown with various concentration of artemisinin and its effect was determined.

[6] = tested on: Lactobacillus acidophilus; assay: MBC against Lactobacillus acidophilus; type: cell-based; conditions: L. acidophilus
Method: as §3

[7] = tested on: H. pylori exhibiting resistance to clarithromycin (CLR) and metronoidazole; assay: Growth of clarithromycin- and metronidazole-resistant H. pylori strains; type: cell-based; conditions: 2.5-10 μM artemisinin, 3 days, micro-aerophilic conditions, FIG. 2
Method: Unsuccessful therapy in patients infected with H. pylori is frequently correlated to clarithromycin and metronidazole resistance. […] Bacterial cultures were incubated in micro-aerophilic conditions. The effect of clarithromycin or artemisinin on bacterial growth was tested using a spectrophotometer after 3 days.

[8] = tested on: H. pylori; assay: Combined effect of artemisinin and omeprazole on H. pylori growth; type: cell-based; conditions: 0.5 μg/ml artemisinin alone, 3 days
Method: In order to explore the possible synergism between artemisinin and a PPI, the growth of bacteria in the presence of artemisinin, omeprazole or both was examined. H. pylori bacteria were grown in the presence of 3-24 μg/ml omeprazole or 0.5-4 μg/ml of artemisinin. Bacterial cultures were incubated in micro-aerophilic conditions. The combined effect of artemisinin and omeprazole on bacterial growth was tested using a spectrophotometer after 3 days.

[9] = tested on: cancer cells; conditions: cited from earlier work
[10] = tested on: anaerobic bacteria; conditions: cited from earlier work
[11] = tested on: H. pylori; assay: Timed artesunate exposure and wash-out, regrowth of H. pylori cultures; type: cell-based; conditions: 0.625 or 6.25 mM, exposure 0.5-18 hours, then 36 hours artesunate-free medium, FIG. 5
Method: Artesunate (0.625 or 6.25 mM) was added to bacterial cultures (0.2 O.D.600) for various time points (0.5, 1, 2, 4, 6, and 18 hours). Artesunate was then washed out from the cultures by precipitation of the bacteria and washing in PBS, after which bacteria were re-suspended in a fresh artesunate-free medium. Bacteria were maintained in artesunate-free medium for additional 36 hours and bacterial growth was then determined by spectrophotometer.

[12] = tested on: H. pylori; assay: Anti-Helicobacter activity of artesunate after pre-incubation in simulated gastric fluid; type: cell-based; conditions: 1 mg/ml pre-incubated in SGF pH 1.2 at 37° C. up to 24 h, cultures then exposed 36 h, FIG. 6
Method: Artesunate (1 mg/ml) was pre-incubated in simulated gastric fluid (SGF, pH 1.2) or in bacterial broth medium (BBM, natural pH) at 37° C. for various time periods (1, 2, 4, 6, and 24 hours). After the pre-incubation, bacterial cultures (0.01 O.D) were exposed for 36 h to culture medium containing the pre-incubated artesunate. The effect of artesunate on bacterial growth was then determined by spectrophotometer.

[13] = tested on: H. pylori bacterial strain SS1; assay: H. pylori-infected mice, colony forming units from homogenized stomach; type: in vivo; conditions: oral 50 mg/kg 3 times/day for 8 days, day 4 and 8, versus placebo, FIG. 7
Method: The effect of artesunate against H. pylori infection in vivo was tested in H. pylori-infected mice. Mice were infected by inoculation (×3/day) with suspension of 10^9 H. pylori bacterial strain SS1. Two weeks following the infection, mice were treated orally with 50 mg/kg artesunate 3 times/day for 8 days. The level of bacterial infection was determined by counting the number of colony forming units derived from the homogenized stomach on day 4 and 8 of the treatment.

[14] = tested on: ulcerative lesion index; conditions: lesions produced by ethanol and indomethacin in rats; cited from earlier work
[15] = tested on: E. coli strains defective in DNA-gyrase enzyme; conditions: cited from earlier work
[16] = tested on: wild type of E. coli having intact DNA gyrase genes; conditions: cited from earlier work

With CCO[C@H]1O[C@@H]2O[C@@]3(C)CC[C@H]4[C@H](C)CC[C@@H]([C@H]1C)[C@@]24OO3 [arteether] the “minimal inhibitory concentration (MIC)” value [1] was 0.15 to 0.3 µM.
For CO[C@H]1O[C@@H]2O[C@@]3(C)CC[C@H]4[C@H](C)CC[C@@H]([C@H]1C)[C@@]24OO3 [artemether], the “minimal inhibitory concentration (MIC)” value [1] was 0.3 to 0.6 µM.
In the case of C[C@@H]1CC[C@H]2[C@@H](C)C(=O)O[C@@H]3O[C@@]4(C)CC[C@@H]1[C@]32OO4 [artemisinin], the “MIC (minimal inhibitory concentration)” value ([1]; Example 1, Table 1) is reported as 2.5 µM (≈ 0.706 µg/mL), the “MBC (minimal bactericidal concentration)” value [2] is reported as 125 to 250 µM and the “MBC (minimal bactericidal concentration)” value [3] is reported as greater than 5000 µM. For the same compound, the “MBC (minimal bactericidal concentration)” value [4] was greater than 5000 µM, the “MIC (minimal inhibitory concentration)” value ([5]; L. acidophilus) was greater than 5000 µM and the “Effect on growth of L. acidophilus” value ([5]; any used concentration below 5 mg/ml) was “did not affect the growth”. The “MBC (minimal bactericidal concentration)” value [6] was greater than 5000 µM, the “Sensitivity of clarithromycin- and metronidazole-resistant H. pylori strains” value [7] was “significant sensitivity” and the “Bacterial growth, artemisinin alone” value [8] was “not effective alone”. The “Concentration range toxic to cancer cells in vitro” value [9] was 20 to 180 µM and the Anti-microbial activity [10] was “possesses an anti-microbial activity”.
With C[C@H]1[C@H](OC(=O)CCC(=O)O)O[C@@H]2O[C@@]3(C)CC[C@H]4[C@H](C)CC[C@@H]1[C@@]24OO3 [artesunate] the “Bacterial growth after wash-out of artesunate” value [11] was “irreversible bacterial eradication”, the “Anti-Helicobacter activity after pre-incubation in low pH” value [12] was “preserved” and the “Number of colony forming units from homogenized stomach” value [13] was “efficiently reduced the number of colony forming units”.
For C[C@@H]1CC[C@H]2[C@@H](C)C(=O)O[C@@H]3O[C@@]4(C)CC[C@@H]1[C@]32O4 [deoxyartemisinin], the “Gastric cytoprotection (ulcerative lesion index)” value [14] is listed as “provided gastric cytoprotection”.
For CCO[C@@H]1O[C@@H]2O[C@]3(C)CC[C@H]4[C@H](C)CC[C@@H]([C@H]1C)[C@@]24OO3 [α-arteether], the Growth inhibition [15] is listed as “inhibits the growth” and the Sensitivity [16] is listed as “not sensitive”.
For dihydro-epideoxyarteannuin B, the “Gastric cytoprotection (ulcerative lesion index)” value [14] is given as “provided gastric cytoprotection”.
